Measurements as given in patent US5559096A, “Pharmaceutical compositions against gastric disorders” (Applied Microbiology, Inc., priority 1991, dated 1996).
Positions of bridges follow the written chain, without caps; N, C: chain ends. Non-standard residues stand in square brackets, D forms with d. Primed or numbered codes have the meaning given here. No end group written: not given here. Dhb′ = not defined here; Abu = CC[C@H](N)C(=O)O; Dha = C=C(N)C(=O)O

Assays:
[1] = system: Helicobacter pylori; assay: Kill time assay: effect of citrate on antimicrobial activity (microbe survival); format: cell-based; conditions: Citrate 10 mM; for Mean Counts CFU/ml 1 min: 1 min after inoculation; for Mean Counts CFU/ml 5 min: 5 min after inoculation; for Mean Counts CFU/ml 30 min: 30 min after inoculation
Description: A kill time assay was carried out to determine the effect of citrate on antimicrobial activity. Microbe survival was assessed after treatment with bacteriocin alone and bacteriocin plus citrate. The effect of citrate alone was also measured. Survival was measured at 1,5 and 30 minutes after inoculation. Activity is expressed as the mean number of counts of colony forming units (CFU) per ml.

[2] = system: H.pylori NCTC 11916; assay: MIC by spiral plater, H.pylori NCTC 11916; format: cell-based, Helicobacter pylori; conditions: H.pylori NCTC 11916, human strain
Description: (§1) The Minimum Inhibitory Concentration (MIC) of bacteriocin antimicrobial agents against a human strains of H.pylori (H.pylori NCTC 11916 and NCTC 11637) were assessed using a spiral plater and automatic agar plate pourer, according to the method of Wallace A. S. and Corkill J. E. (J. Microbial. Methods, 10, 303-310, 1989). MIC values were calculated according to the equation for the Archimedes spiral.

[3] = system: Helicobacter pylori; assay: Kill time at 4 times the average MIC; format: cell-based; conditions: time taken to reduce microbe levels to <200 viable organisms; drug concentration 4 times the average MIC
Description: Kill time was calculated as the time taken to reduce microbe levels to <200 viable organisms using a drug concentration equal to 4 times the average MIC value for the test compound.

[4] = system: H.pylori NCTC 11637; assay: MIC by spiral plater, H.pylori NCTC 11637; format: cell-based, Helicobacter pylori; conditions: H.pylori NCTC 11637, human strain
Description: as §1

[5] = Initial Inoculum 8.92 × 10^4, Ambicin N 300 ppm

Molecule	Mean Counts CFU/ml 1 min ([1]; Initial Inoculum 2.39 × 10^5)	Mean Counts CFU/ml 1 min [1, 5]	Mean Counts CFU/ml 5 min ([1]; Initial Inoculum 2.39 × 10^5)	Mean Counts CFU/ml 5 min [1, 5]	Mean Counts CFU/ml 30 min ([1]; Initial Inoculum 2.39 × 10^5)	Mean Counts CFU/ml 30 min [1, 5]	MIC Value NCTC 11916 [2] [µg/mL]	Kill Time [3]	MIC Value NCTC 11637 [4] [µg/mL]
O=C(O)CC(O)(CC(=O)O)C(=O)O [Citrate]	1.59 × 10^4 CFU/ml	7.98 × 10^4 CFU/ml	1.42 × 10^4 CFU/ml	8.64 × 10^4 CFU/ml	1.95 × 10^4 CFU/ml	6.92 × 10^4 CFU/ml	–	–	–
CC(C)C[C@@H]1NC(=O)[C@H](CCCN)NC(=O)[C@H](C(C)C)NC(=O)[C@H](Cc2ccc(O)cc2)N[C@@H](CCC(=O)O)C(=O)N[C@@H](CC(N)=O)C(=O)[C@@H](Cc2ccccc2)NC(=O)[C@H](Cc2ccccc2)NC(=O)[C@@H]2CCCN2C(=O)[C@@H](Cc2ccccc2)NC1=O [Tyrothricin]	2.55 × 10^4 CFU/ml	–	1.77 × 10^4 CFU/ml	–	1.78 × 10^4 CFU/ml	–	1.0 to 4.0	< 1	1.0 to 5.0
Ambicin N: purified form of nisin made available by Applied Microbiology Inc. under the trade name AMBICIN N (I[Dhb′]AI[Dha]LC[Abu]PGCK[Abu]GALMGCNMK[Abu]A[Abu]CHCSIHV[Dha]K; thioether 8-11, 13-19, 23-26, 25-28, 3-7; UniProt P13068 24-57, looked up)	–	6.31 × 10^4 CFU/ml	–	5.71 × 10^4 CFU/ml	–	4.72 × 10^4 CFU/ml	50 to 300	> 30	50 to 300
Gramicidin	7.69 × 10^3 CFU/ml	–	1.44 × 10^4 CFU/ml	–	1.35 × 10^4 CFU/ml	–	0.5 to 3.0	> 30	1.0 to 3.5
